Measurements published in the NIST ThermoML archive (doi:10.1016/j.tca.2012.03.022).

Experiment: molar heat capacity at constant pressure; wn = mass fraction of the nth substance listed
Conditions: 101 kPa, Crystal, Small sample (50 mg) DSC

[W] [tungsten] + [Cu]
molar heat capacity at constant pressure [J/K/mol]
Conditions | 295.15 K | 373.15 K | 473.15 K | 573.15 K | 673.15 K
w1 = 0.728 | 25.9 | 26.59 | 27.11 | 27.43 | 27.89
w1 = 0.761 | 24.67 | 25.12 | 25.61 | 25.91 | 26.04
w1 = 0.837 | 26.96 | 27.52 | 28.07 | 28.41 | 28.66
w1 = 0.889 | 25.66 | 26.21 | 26.68 | 26.95 | 27.19
w1 = 0.913 | 25.81 | 26.08 | 26.45 | 26.75 | 26.88
